The test system of one series is Panc-1 cells. In words: 2D-proliferation assay. The class given is cell-based. The following applies: Homo sapiens. How it is done:
(§1) Calculation of growth inhibitory concentrations (g IC50) at Days 4, 6 and 13 treated with Formula D. 2D-proliferation assays were also performed on pancreatic cell lines treated with Formula D. Treatment of both Miapaca-2 and Panc-1 cells with Formula D results in a decrease in cell proliferation, as shown in FIG. 19.

For another series, the system named is MiaPaca-2 cells. The series is described as follows: 2D-proliferation assay. The note with it: Homo sapiens. The class given is cell-based. As for the experimental part:
as §1

A further series concerns Miapaca-2. The series is described as follows: Foci formation and cellular morphology. The class given is cell-based. How it is done:
(§2) FIG. 18 illustrates the effect of foci formation and cellular morphology in pancreatic cancer cell lines (Miapaca-2, Panc-1). The effects of treatment with Formula D on pancreatic cancer cell morphology was also tested.

Another series deals with Panc-1. The series is described as follows: Foci formation and cellular morphology. It counts as cell-based. How it is done: as §2
A further series deals with Z-138 xenograft model. In words: 21 day mantle cell lymphoma xenograft study: TGI and tumor methyl mark. It counts as in vivo. The following applies: Z-138 xenograft; all doses tested; day 21. As for the experimental part:
Data presented in this example were determined after analysis of 21 day samples of mantle cell lymphoma tumors. Cmin PK samples were taken prior to the last dose on day 21. Tumors were excised, weighed and processed for methyl mark. Methyl mark reduction was measured in tumor samples and is shown as percent of vehicle control (POC). […] Tumor growth inhibition was determined using tumor volume reduction at day 21 expressed as a percent of POC. In vivo inhibition curves were also generated and IC50 values determined. Plasma levels from each group are averaged from 5 animals. […] The average body weight loss (BWL) in all groups was <6%. All doses tested show >50% TGI. […] The average BWL in all groups was <4%. The average BWL in all groups was <8%, except in the 100 mg/kg does group were 4 animals exceeded BWL of 15%.

Another series has as its system Granta-519. In words: Long-term proliferation (LTP) assay. The class given is cell-based. The note with it: Homo sapiens, Table 3, read-out: LTP IC50.
A further series concerns Maver-1 cells. In words: Annexin-V staining (apoptosis). It counts as cell-based, Human. The following applies: after 4 days of treatment. How it is done:
(§3) The mechanism of cell killing was evaluated in the MCL cell lines, Z-138 and Mayer-1. Cells were treated at various time points with 2 nM, 20 nM, and 200 nM of Formula B. Apoptosis was assessed by measuring the percentage of Annexin-V positive cells and the assay was performed in triplicate.

A further series concerns Z-138 cells. The series is described as follows: Annexin-V staining (apoptosis). The class given is cell-based, Human. The note with it: 200 nM. How it is done:
as §3

For a further series, the system named is Maver-1. In words: Long-term proliferation (LTP) assay. It counts as cell-based. The note with it: Homo sapiens, Maver1, Table 3, read-out: LTP IC50.
A further series concerns Z-138. In words: Long-term proliferation (LTP) assay. The class given is cell-based. The following applies: Homo sapiens, Table 3, read-out: LTP IC50. How it is done: FIG. 4 illustrates a representative sample of a long-term proliferation assay performed in the mantle cell lymphoma cell line Z-138. Assays were performed in technical triplicates, reading cell viability over 14 days. Growth curves (top panel) were calculated in Excel. IC50 (bottom panel) and IC90 (not shown) values were calculated in GraphPad Prism using a non-linear regression analysis, fixing the top and bottom of the curves to 100 and 0%, respectively. The IC50 values in the Table are indicated in microM. [table]

The subject of a further series is Maver-1 xenograft model. In words: 21 day mantle cell lymphoma xenograft study: TGI and tumor methyl mark. The class given is in vivo. The following applies: all doses tested, day 21. How it is done: (§4) Data presented in this example were determined after analysis of 21 day samples of mantle cell lymphoma tumors. Cmin PK samples were taken prior to the last dose on day 21. Tumors were excised, weighed and processed for methyl mark. Methyl mark reduction was measured in tumor samples and is shown as percent of vehicle control (POC). Both SYM11 and sDMA Elisa were used to measure methyl mark and the data shown is averaged from 10 animals. Tumor growth inhibition was determined using tumor volume reduction at day 21 expressed as a percent of POC. In vivo inhibition curves were also generated and IC50 values determined. Plasma levels from each group are averaged from 5 animals. […] The average body weight loss (BWL) in all groups was <6%. All doses tested show >50% TGI. […] The average BWL in all groups was <4%. The average BWL in all groups was <8%, except in the 100 mg/kg does group were 4 animals exceeded BWL of 15%.

The subject of another series is Mino. In words: Long-term proliferation (LTP) assay. The class given is cell-based. The following applies: Homo sapiens, Table 3, read-out: LTP IC50.
For series [1], the system named is sDMA methylation in Granta-519 cells. In words: sDMA western blot, 10 kDa band to total SmD3. It counts as cell-based. The following applies: Homo sapiens, Table 3, read-out: sDMA Western IC50. How it is done:
(§5) The measurement of the 10 kDa band was used to calculate the methylation IC50 values. […] Concentration-dependent decreases in the 10 kDa band were observed on day 4 in all cell lines tested with representative western blots shown for Z-138 and Maver-1 cell lines (FIG. 1). Levels of the 10 kDa band from the western blots were quantified by densitometry and ratios of 10 kDa band (postulated to be SmD3me2s) to total SmD3 were calculated to determine the IC50s (Table 2, n=1 for all samples).
A general note: Immunoblotting shows a protein as a band on a membrane.

Series [2] concerns sDMA methylation in Maver-1 cells. In words: sDMA western blot, 10 kDa band to total SmD3. It counts as cell-based. The note with it: Homo sapiens, Maver1, Table 3, read-out: sDMA Western IC50. How it is done:
as §5

Series [3] concerns sDMA methylation in Z-138 cells. In words: sDMA western blot, 10 kDa band to total SmD3. It counts as cell-based. The note with it: Homo sapiens, Table 3, read-out: sDMA Western IC50. How it is done: as §5
Series [4] concerns sDMA methylation in Mino cells. In words: sDMA western blot, 10 kDa band to total SmD3. It counts as cell-based. The note with it: Homo sapiens, Table 3, read-out: sDMA Western IC50. How it is done: as §5
The test system of series [5] is sDMA methylation in Jeko-1 cells. In words: sDMA western blot, 10 kDa band to total SmD3. It counts as cell-based. The following applies: Homo sapiens, Table 3, read-out: sDMA Western IC50. As for the experimental part: as §5
A further series has as its system Jeko-1. In words: Long-term proliferation (LTP) assay. The class given is cell-based. The following applies: Homo sapiens, Table 3, read-out: LTP IC50.
Series [6] can be described thus: Body weight loss in Z-138 xenograft study. The class given is in vivo. How it is done:
as §4

Like-named read-outs stand apart in the source and are kept apart here.

As to `O=C(COc1cccc2cccnc12)NC[C@@H](O)CN1CCc2ccccc2C1` [Formula D], the IC50 was determined as 1990 nM in the series with Panc-1 cells (96 h, Day 4, read-out: growth inhibitory concentration (gIC50)); 1240 nM with Panc-1 cells (144 h, Day 6, read-out: growth inhibitory concentration (gIC50)); 3900 nM in the series on Panc-1 cells (312 h, Day 13, read-out: growth inhibitory concentration (gIC50)); 349 nM in the series with MiaPaca-2 cells (MIA PaCa-2, 96 h, Day 4, read-out: growth inhibitory concentration (gIC50)); 269 nM in the series with MiaPaca-2 cells (MIA PaCa-2, 144 h, Day 6, read-out: growth inhibitory concentration (gIC50)); 929 nM in the series with MiaPaca-2 cells (MIA PaCa-2, 312 h, Day 13, read-out: growth inhibitory concentration (gIC50)). Besides, the “effect on pancreatic cancer cell morphology / growth” value in the series with Miapaca-2 and in the series with Panc-1 was “inhibition of cancer cell growth” in each case.
Regarding `CC(=O)N1CCC(Nc2cc(C(=O)NC[C@H](O)CN3CCc4ccccc4C3)ncn2)CC1` [Formula A], the “Tumor growth inhibition (TGI)” value in the series with Z-138 xenograft model and with Maver-1 xenograft model was over 50% throughout. Moreover, the IC50 in the series on Granta-519 was determined as 4.7 nM; in the series on Maver-1, 32 nM; in the series with Z-138, 5.7 nM; in the series with Mino, 106 nM; in series [1], 2 nM; in series [2], 0.3 nM. Moreover, the IC50 in series [3] stood at 14 nM; in [4] it was 7 nM; in [5], 8.7 nM; with Jeko-1 it was 11.3 nM. The “cells stained positive for Annexin-V” value in the series on Maver-1 cells is recorded as 8%. For the same molecule, the entries for the “increase in Annexin-V positive cells” value in the series with Z-138 cells (after 4 days) and in the series with Z-138 cells (after 6 days) were 12% and 40%, respectively. The “body weight loss (BWL) exceeded by 4 animals” value in [6] (100 mg/kg dose group) is listed as over 15%. Besides, the “average body weight loss (BWL) in all groups” value in series [6] (21 days) is on record as under 8%.

For the origin of these results see US10653693B2, “PRMT5 inhibitors and uses thereof” (Epizyme, Inc., priority 2014, dated 2020).
